Source: patent US5574026A, “Methods for inhibiting angiogenesis proliferation of endothelial or tumor cells and tumor growth” (American Cyanamid Company, priority 1994, dated 1996)
Where a name gives a salt, the structure may show the parent alone. Read-outs that look alike come from different tables or passages of the source.

Legend:
angiogenesis = settings: Brem et al; in words; cited from earlier work
Human Tumor cell lines = assay: Antiproliferative activity in panel of human tumor cell lines (average / panel as a whole), PROTOCOL 1 and PROTOCOL 2; assay type: cell-based; settings: Homo sapiens; average over the tumor cell lines tested
Procedure: (§1) The antiproliferative activity of the compounds of Formula I in an Adult Bovine Aortic Endothelial (ABAE) cell line and in Human Tumor cells lines is evaluated in three similar assays that measure growth inhibition. The assays are identified as follows:
(§2) PROTOCOLS 1, 2, and 3 are described in greater detail hereinbelow. In general, according to PROTOCOLS 1 and 2, the target ABAE and/or Human Tumor cells are exposed to the compounds of Formula I for 48 hours. PROTOCOL 3 exposes ABAE cells to the compounds for 4 days. A detailed description of the Protocols is as follows:
(§3) Antiproliferative Activity in Human Tumor Cell Lines
(§4) The antiproliferative activity of the compounds of Formula I of the present invention is evaluated in a panel comprised of human tumor cell lines. The human tumor cell lines are from
(§5) 2) Colon tumors: MIP, CACO2, and SW620.
(§6) All cell lines are maintained in log phase in RPMI 1640 media, supplemented with 5% fetal calf serum, penicillin/streptomycin and 2 mM L-glutamine. Cultures are renewed after 20 passages with cells from a fresh stock of batch-frozen early passage cells. Cell lines are routinely checked for mycoplasma contamination (Genprobe). In a laminar flow hood, cells (1-5×10^4) are plated into 96-well microtiter plates in a volume of 0.1 ml/well with a bulk microtiter dispenser (Denley). […] At this concentration, dimethylsulfoxide has no effect on cell growth. Compounds are added using a Tomtec dispenser which simultaneously dispenses from one 96-well plate, containing the drug dilutions, to the plates containing the cells. After two days of continuous drug exposure, 50% cold trichloroacetic acid (TCA) is added to 10% final concentration to fix the cells, and after 60 minutes at 4° C., the TCA is aspirated and the plates are washed 5 times with deionized water using a microtiter plate washer. The number of cells on the plate are quantitated using a protein dye-binding assay (Monks et al., 1991). A 0.4% solution of the dye, sulforhodamine B, in […] is added to the plates, and the plates are washed 5 times with 1% glacial acetic acid using the automatic plate washed. The bound stain is solubilized with 0.1 ml of 10 mMTris base. The optical densities are read from an automatic spectrophotometric plate reader (Dynatech) directly to a main frame computer (VAX 8600).
(§7) Positive controls, that include standard chemotherapeutic drugs (i.e., adriamycin, cisplatin, etc.), are included in every experiment.
(§8) Background optical density measurements (complete media--cells, and complete media+drug-cells) are automatically subtracted from the appropriate control and test wells. Mean values and standard errors are determined from duplicate wells. A measure is also made of the optical density at time when the drugs are added. The number of cells after treatment (P), as % of control, is calculated for every concentration of drug, as follows: [formula] wherein: T is optical density measurement for treated cells after 48 hours;
(§9) C is optical density measurement for untreated cells after 48 hours;
(§10) Co is optical density measurement for cells at the time of drug addition.
(§11) IC50 of Growth inhibition is calculated from the sets of P values using the RS-1 data package (BBN Software).
(§12) Antiproliferative Activity in Human Tumor and Adult Bovine Aortic Endothelial Cell Lines (ABAE)
(§13) The antiproliferative activity of the compounds of Formula I is evaluated in a panel comprised of human tumor cell lines as listed in Protocol 1 as well as an adult bovine aortic endothelial cell line (ABAE). This assay is a modification of PROTOCOL 1. The modifications include:
(§14) 1) each concentration for each compound is tested in a single well;
(§15) 2) compounds are tested at 20, 4, 0.8, 0.16 microgram/ml and additionally in some experiments at 100 and 0.32 microgram/ml;
(§16) 3) samples are pipetted into a 96-well plate for each of the cell lines by a Beckman Biomek 1000 SL robot; […]

MIP = assay: Antiproliferative activity in human tumor cell lines, PROTOCOL 1 and PROTOCOL 2; assay type: cell-based; settings: colon tumor cell line MIP, 48 hours
Procedure: as §1, §2, §3, §4, §5, §6, §7, §8, §9, §10, §11, §12, §13, §14, §15, §16

SW620 = assay: as above; assay type: cell-based
Procedure: as §1, §2, §3, §4, §5, §6, §7, §8, §9, §10, §11, §12, §13, §14, §15, §16

A2780S = assay: as above; assay type: cell-based
Procedure: (§17) The assays are identified as follows: PROTOCOLS 1, 2, and 3 are described in greater detail hereinbelow. In general, according to PROTOCOLS 1 and 2, the target ABAE and/or Human Tumor cells are exposed to the compounds of Formula I for 48 hours. PROTOCOL 3 exposes ABAE cells to the compounds for 4 days. A detailed description of the Protocols is as follows: Antiproliferative Activity in Human Tumor Cell Lines The antiproliferative activity of the compounds of Formula I of the present invention is evaluated in a panel comprised of human tumor cell lines. […] Cultures are renewed after 20 passages with cells from a fresh stock of batch-frozen early passage cells. Cell lines are routinely checked for mycoplasma contamination (Genprobe). In a laminar flow hood, cells (1-5×10^4) are plated into 96-well microtiter plates in a volume of 0.1 ml/well with a bulk microtiter dispenser (Denley). […] Compounds are added using a Tomtec dispenser which simultaneously dispenses from one 96-well plate, containing the drug dilutions, to the plates containing the cells. After two days of continuous drug exposure, 50% cold trichloroacetic acid (TCA) is added to 10% final concentration to fix the cells, and after 60 minutes at 4° C., the TCA is aspirated and the plates are washed 5 times with deionized water using a microtiter plate washer. […] A 0.4% solution of the dye, sulforhodamine B, in glacial acetic acid is added to the plates, and the plates are washed 5 times with 1% glacial acetic acid using the automatic plate washed. The bound stain is solubilized with 0.1 ml of 10 mMTris base. The optical densities are read from an automatic spectrophotometric plate reader (Dynatech) directly to a main frame computer (VAX 8600). Positive controls, that include standard chemotherapeutic drugs (i.e., adriamycin, cisplatin, etc.), are included in every experiment. Background optical density measurements (complete media--cells, and complete media+drug-cells) are automatically subtracted from the appropriate control and test wells. Mean values and standard errors are determined from duplicate wells. A measure is also made of the optical density at time when the drugs are added. The number of cells after treatment (P), as % of control, is calculated for every concentration of drug, as follows: [formula] wherein: T is optical density measurement for treated cells after 48 hours; C is optical density measurement for untreated cells after 48 hours; Co is optical density measurement for cells at the time of drug addition. IC50 of Growth inhibition is calculated from the sets of P values using the RS-1 data package (BBN Software). Antiproliferative Activity in Human Tumor and Adult Bovine Aortic Endothelial Cell Lines (ABAE) The antiproliferative activity of the compounds of Formula I is evaluated in a panel comprised of human tumor cell lines as listed in Protocol 1 as well as an adult bovine aortic endothelial cell line (ABAE). This assay is a modification of PROTOCOL 1.

A2780/DDP = assay: as above; assay type: cell-based
Procedure: as §17

HTB 161 = assay: as above; assay type: cell-based; settings: HTB 161, 48 hours
Procedure: as §17

[1] = system: Adult Bovine Aortic Endothelial (ABAE) cell line; assay: Antiproliferative activity in Adult Bovine Aortic Endothelial (ABAE) cell line, PROTOCOL 3 (4 days, cell count); assay type: cell-based; settings: for IC50: Bos taurus, 96 h
Procedure: as §1, §2
Antiproliferative Activity in Adult Bovine Aortic Endothelial (ABAE) Cell Line
ABAE cells are grown in DMEM media (Mediatech, Washington, D.C.) supplemented with 10% calf serum (Hyclone). ABAE cells are plated in 24-well dishes at 8,000 cells/well, followed by the addition of increasing concentrations of 7-halogen-9-[hydrogen or [(substituted glycyl)amido]]-6-demethyl-6-deoxytetracycline. After four days, the cells are detached and counted. […] The growth inhibition (I) as % of control is calculated as follows: [formula] wherein: Nc is the number of cells in untreated wells;
Nt is the number of cells in treated wells;
No is the number of plated cells.
IC50 of growth inhibition is determined from the sets of I values plotted by Kaleidograph software (Abelbeck Software).
Table 1 presents the results depicting the antiproliferative activity of the compounds of Formula I against an ABAE cell line, as evaluated by PROTOCOL 2 and PROTOCOL 3. The results are presented in terms of IC50 and are as follows.

CACO2 = assay: Antiproliferative activity in human tumor cell lines, PROTOCOL 1 and PROTOCOL 2; assay type: cell-based; settings: Caco-2, colon tumor cell line CACO2, 48 hours, read-out: IC50
Procedure: as §1, §2, §3, §4, §5, §6, §7, §8, §9, §10, §11, §12, §13, §14, §15, §16

[2] = SW-620, colon tumor cell line SW620, 48 hours, read-out: IC50
[3] = ovarian tumor cell line A2780S, 48 hours, read-out: IC50

| Structure (SMILES) | inhibition of angiogenesis (angiogenesis) | IC50 (Human Tumor cell lines) [µg/mL] | IC50 (MIP) [µg/mL] | IC50 (HTB 161) [µg/mL] | IC50 (SW620; [2]) [µg/mL] | IC50 (A2780S; [3]) [µg/mL] | also measured |
| --- | --- | --- | --- | --- | --- | --- | --- |
| CN(C)[C@@H]1C(O)=C(C(N)=O)C(=O)[C@@]2(O)C(O)=C3C(=O)c4c(O)ccc(Cl)c4[C@@](C)(O)[C@H]3C[C@@H]12 [Chlortetracycline] | useful as inhibitors of angiogenesis |  |  |  |  |  |  |
| CN(C)[C@@H]1C(O)=C(C(N)=O)C(=O)[C@@]2(O)C(O)=C3C(=O)c4c(O)ccc(Cl)c4[C@@H](O)[C@H]3C[C@@H]12 [Demeclocycline] | useful as inhibitors of angiogenesis |  |  |  |  |  |  |
| CN(C)[C@@H]1C(O)=C(C(N)=O)C(=O)[C@@]2(O)C(O)=C3C(=O)c4c(O)c(NC(=O)CN5CCCC5)cc(I)c4CC3CC12 (stereo partly drawn) [Example 5, [7S-(7α,10aα)]-N-9-[(Aminocarbonyl)-7-(dimethylamino)-5,5a,6,6a,7,10,10a,12-octahydro-1,8,10a,11-tetrahydroxy-4-iodo-10,12-dioxo-2-naphthacenyl]-1-pyrrolidineacetamide dihydrochloride] |  | 3.8 | 4 | 3 |  |  | IC50 (SW620; SW-620, 48 h): 4 µg/mL; IC50 (A2780S; A2780S, 48 h): 4 µg/mL; IC50 (A2780/DDP; 48 h): 4 µg/mL |
| CN(C)[C@@H]1C(O)=C(C(N)=O)C(=O)[C@@]2(O)C(O)=C3C(=O)c4c(O)c(NC(=O)CN5CCCCC5)cc(I)c4CC3CC12 (stereo partly drawn) [Example 6, [7S-(7α,10aα)]-N-9-[(Aminocarbonyl)-7-(dimethylamino)-5,5a,6,6a,7,10,10a,12-octahydro-1,8,10a,11-tetrahydroxy-4-iodo-10,12-dioxo-2-naphthacenyl]-1-piperidine-acetamide dihydrochloride] |  | 1 | 0.6 | 0.2 | 0.4 | 0.2 | IC50 ([1]; ABAE cells, PROTOCOL 3, 4 days, read-out: IC50 PROTOCOL 3): 2.5 µg/mL; IC50 ([1]; FIG. 1, ABAE, 4 day assay (Protocol 3), read-out: inhibits 50% of cell growth at): ~2 µg/mL; activity upon incubation with cells ([1]; FIG. 1, 4 day assay (Protocol 3), in words): retains its activity; activity in preventing the proliferation of ABAE cells compared to Minocycline ([1]; Table 1, in words): increased activity; IC50 (CACO2): 4 µg/mL; IC50 (A2780/DDP; ovarian tumor cell line /DDP, 48 hours, read-out: IC50): 0.8 µg/mL |
| CN(C)[C@@H]1C(O)=C(C(N)=O)C(=O)[C@@]2(O)C(O)=C3C(=O)c4c(O)c(NC(=O)CNC5CCCC5)cc(I)c4CC3CC12 (stereo partly drawn) [Example 7, [4S-(4',12aα)]-9-[[(Cyclopentylamino)acetyl]amino]-4-(dimethylamino)-1,4,4a,5,5a,6,11,12a-octahydro-3,10,12,12a-tetrahydroxy-7-iodo-1,11-dioxo-2-maphthacenecarboxamide dihydrochloride] |  | 2 |  | 1 | 3 | 2 |  |
| CN(C)[C@@H]1C(O)=C(C(=O)NCNCCCC[C@H](N)C(=O)O)C(=O)[C@@]2(O)C(O)=C3C(=O)c4c(O)cccc4[C@@](C)(O)[C@H]3C[C@@H]12 [Lymecycline] | useful as inhibitors of angiogenesis |  |  |  |  |  |  |
